The values that follow come from patent US20250228242A1 (priority 2021, published 2025).

Molecules are shown by their SMILES. Where a name gives a salt, the structure may show the parent alone.

One assay concerns Phytophthora infestans. The assay can be described thus: whole plant or invertebrate. Type of assay: in vivo. The settings on record: in Solanum tuberosum, 120 h, read-out: P. infestans % inhibition.
For assay [1], the system named is Albugo candida. As to the kind of experiment: Albugo candida on A. thaliana, syringe infiltration of compound, visual scoring of disease severity. Type of assay: in vivo. The settings on record: in Arabidopsis thaliana, read-out: A. candida Inhibitory effect. How it is done:
(§1) A. thaliana seeds were stratified on moist soil (Einheitserde type A240, Stender, Germany) for seven days at 4° C. in darkness, before transfer into growth chambers with short day conditions (10 h light, 14 h darkness, 23/20° C., 60% humidity). After three weeks, seedlings were singularised and grown for three weeks further. After six weeks, A. thaliana plants were used for experiments and after infection they were transferred into SANYO (Panasonic MLR-352, Japan) growth cabinets (10 h light, 14 h darkness, 22/16° C.). Potato plants were grown from tubers by covering them with soil (Einheitserde type A240, Stender, Germany). The leaves of adult plants (˜4-6 weeks old) were cut off and kept in a moist environment for infection assays.
(§2) For regular Albugo sp. infections A. thaliana Ws-0 was sprayed with an Albugo sp. conidiospores solution. These spore solutions were prepared by harvesting sporulating leaf material at 14 days post infection (dpi) and adding water for rehydration of the spores. Spore solutions were hold on ice for ˜1 h, before filtering through miracloth (Merck Millipore, Germany) to remove dirt. Spores were counted and the solutions diluted to 22.2×10^4 conidiospores/ml. Albugo sp. spore solutions were sprayed uniformly on A. thaliana leaves (4.5 ml per six plants) using an airbrush gun. During spraying, plants were placed in a plastic bag and afterwards transferred into a cold room to incubate at 4° C. in darkness (˜16 h). The next morning, plants were transferred into plant growth cabinets, but left in clear bags to keep humidity high, which supports Albugo sp. infections. ˜24 h later plants were unbagged and further incubated under normal plant growth conditions.
(§3) Afterwards, the plants were kept in the lab for ˜1 h to let the leaves equilibrate again. The infiltrated plants were infected with Albugo sp., following the above-mentioned protocol. At 7 dpi, infiltrated leaves were phenotypically scored and harvested. The samples were frozen in liquid nitrogen and stored at −80° C. until DNA extraction for growth quantification via qPCR. For experiment 4, A. candida spore solutions were prepared as before and mixed with 10 mM stock solution of the test compound (100 μM end conc.). The mixture of spore solution and test compound was sprayed and incubated as for experiment 2 and 3.
(§4) • Fungicidal activity against other oomycetes was tested using isolates of the obligate biotrophic pathogen genus Albugo on Arabidopsis thaliana. The test compounds, 100 μM in 1% DMSO, were syringe infiltrated into adult A. thaliana and subsequently sprayed with aqueous spore solutions of Albugo laibachii or A. candida. In primary screenings, disease severity was visually screened and scored at nine days post infection (dpi) (Table 2+3).

The test system of assay [2] is Pseudomonas syringae pv. tomato (Pto) DC3000. As to the kind of experiment: Bacterial liquid culture growth curves (OD600), Pto DC3000. The settings on record: 18.5 h, read-out: Absolute growth rate relative to mock control, Pto DC3000.
The subject of another assay is Rhodococcus sp. As to the kind of experiment: Bacterial liquid culture growth curves (OD600), Rhodococcus sp. The settings on record: 18.5 h, read-out: Absolute growth rate relative to mock control, Rhodococcus sp.
The subject of assay [3] is Albugo candida. The assay can be described thus: Albugo candida growth on A. thaliana after syringe infiltration, quantified via qPCR. Type of assay: in vivo. The settings on record: for inhibition at 100 µM: Albugo candida, in Arabidopsis thaliana, qPCR at 7 dpi, A. thaliana; for inhibition of A. candida growth (in words): Table 4, qPCR at 7 dpi.
Assay [4] has as its system Albugo laibachii. The assay can be described thus: Albugo laibachii growth on A. thaliana after syringe infiltration, quantified via qPCR. The settings on record: for inhibition at 100 µM: Albugo laibachii, in Arabidopsis thaliana, qPCR at 7 dpi, A. thaliana; for inhibition of A. laibachii growth (in words): Table 4, qPCR at 7 dpi, p 5 0.05. Format: in vivo. (Quantitative PCR measures a nucleic acid by following its amplification.)

Assay [5] has as its system Albugo laibachii. The assay can be described thus: Albugo laibachii on A. thaliana, syringe infiltration of compound, visual scoring of disease severity. The settings on record: in Arabidopsis thaliana, 100 μM in 1% DMSO syringe infiltrated into adult A. thaliana, visually scored at nine dpi, read-out: A. laibachii Inhibitory effect. Format: in vivo. How it is done:
as §1, §2, §3, §4

For the next assay, the system named is A. candida. The assay can be described thus: A. candida growth on A. thaliana after spray application of spore solution mixed with compound, qPCR. Format: in vivo, Albugo candida. The settings on record: for inhibition at 100 µM: Candida, in Arabidopsis thaliana, spray application of spore solution mixed with 100 μM compound in 1% DMSO, qPCR at 7 dpi, A. thaliana.

Another assay relates to P. infestans. The assay can be described thus: whole plant or invertebrate. Format: in vivo. The settings on record: Phytophthora infestans, in Solanum tuberosum, read-out: P. infestans % inhibition.
The next assay concerns Phakopsora pachyrhizi. As to the kind of experiment: Soybean rust on soybean (Glycine max) leaves, syringe infiltration of compound, visual scoring. Type of assay: in vivo. The settings on record: 100 μM in 1% DMSO syringe infiltrated into adult G. max, visually scored at nine dpi, read-out: P. pachyrhizi Inhibitory effect. As for the experimental part:
Soybean plants were grown from pregerminated soybeans by putting them 1 cm deep into soil (Einheitserde type A240, Stender, Germany). Plants were grown in growth cabinets (16h light at 400 μM/m^2s and 22-24° C.-8h dark at 21-22° C.). 14 days after soil planting, plants were used for infection and experiments. Following inoculation with rust spores, plants were transferred back to growth cabinet prior to symptom screening.
Infiltration was always done through somata at the lower site of the leaf under light conditions to ensure stomata are open. Afterwards, the plants were kept in the growth cabinet for ˜1 h to let the leaves equilibrate again. The infiltrated plants were inoculated with Soybean rust spores using an airbrush and 0.01% Tween20 to ensure homogenous wetting. Plants were afterwards incubated for 24h in the dark at 24° C. and 100% humidity. At 9 dpi, infiltrated leaves were phenotypically scored.
• Fungicidal activity against Soybean rust was tested using a highly virulent stain of Phakopsora pachyrhizi and commercially available Soybeans.
The test compounds, […] 100 μM in 1% DMSO, were syringe infiltrated into adult G. max plants and subsequently sprayed with aqueous spore solutions and 0.01% Tween. In primary screenings, disease severity was visually screened and scored at nine days post infection (dpi) (Table 8).

Turning to `Oc1ccc(-c2cc(-c3cc(O)c(O)c(O)c3)n[nH]2)cc1O` [Compound 5, 5-(3,4-Dihydroxyphenyl)-3-(3,4,5-trihydroxyphenyl)-1H-pyrazole], the inhibition at 100 µM in the assay on Phytophthora infestans is 89%; with Albugo candida [1] it was greater than 70%. Also, the activity at 100 µM in [2] came to 40%; in the assay on Rhodococcus sp., 64%.

Consider `COc1ccc(-c2cc(-c3ccc(OC)c(OC)c3)on2)cc1` [Compound 19, 5-(3,4-Dimethoxyphenyl)-3-(4-methoxyphenyl)isoxazole], for which the inhibition at 100 µM with Albugo candida [3] is 70%; in the assay on Phytophthora infestans, 26%; with Albugo candida [1] it was greater than 70%; in the assay with Albugo laibachii [4], 59%. In addition, the “inhibition of A. candida growth (in words)” value in the assay with Albugo candida [3] is given as “strong inhibition”. For the same molecule, the “inhibition of A. laibachii growth (in words)” value with Albugo laibachii [4] is recorded as “significantly inhibited”. Also, the activity at 100 µM was determined as 95% in [2] and 58% in the assay with Rhodococcus sp..

With `Oc1ccc(-c2cc(-c3ccc(O)c(O)c3)on2)cc1` [Compound 22, 5-(3,4-Dihydroxyphenyl)-3-(4-hydroxyphenyl)isoxazole], the inhibition at 100 µM in the assay with Albugo candida [3] was 53%; in the assay with Phytophthora infestans it was 63%; in the assay on Albugo laibachii [5], greater than 70%; in the assay with Albugo laibachii [4] it was 49%. Also, in the assay on Albugo candida [3], the “inhibition of A. candida growth (in words)” value is reported as “strong inhibition”. In the assay with Albugo laibachii [4], the “inhibition of A. laibachii growth (in words)” value was “significantly inhibited”.

As for `Br.Oc1ccc(-c2noc(-c3ccc(O)c(O)c3)n2)cc1O` [Compound 24, 3,5-Bis(3,4-Dihydroxyphenyl)-1,2,4-oxadiazole hydrobromide], the inhibition at 100 µM in the assay with Albugo candida [3] is 80%; in the assay with Phytophthora infestans, 80%; with Albugo candida [1], greater than 70%; in the assay with Albugo laibachii [4], 16%; in the assay with A. candida it was 41%. In the assay with Albugo candida [3], the “inhibition of A. candida growth (in words)” value was “strong inhibition”. Further, the figures for the activity at 100 µM (in assay [2]; in the assay with Rhodococcus sp.) were 95% and 19%, respectively.

In the case of `Oc1ccc(-c2c[nH]c(-c3ccc(O)c(O)c3)n2)cc1O` [Compound 28, 2,4-Bis(3,4-dihydroxyphenyl)-1H-imidazole hydrobromide], the inhibition at 100 µM in the assay on Albugo candida [3] is 49%; with Phytophthora infestans, 30%; in the assay on Albugo laibachii [5], 30 to 70%; in the assay on Albugo laibachii [4], 4%. In addition, the values for the activity at 100 µM (in [2]; in the assay with Rhodococcus sp.) were 49% and 71%, respectively.

With `Br.Oc1ccc(-c2cc(-c3ccc(Cl)cc3)[nH]n2)cc1` [Compound 36, 5-(4-Chlorophenyl)-3-(4-hydroxyphenyl)-1H-pyrazole hydrobromide], the inhibition at 100 µM was 85% in the assay with P. infestans, 95% in the assay on Phytophthora infestans, greater than 70% in the assay with Albugo candida [1] and 94% with A. candida. Besides, the “growth inhibition of A. candida (in words)” value in the assay with A. candida (Table 5, spore solution mixed with compound, sprayed) is reported as “strong growth inhibition”. In addition, the activity at 100 µM in assay [2] came out at 104%; in the assay with Rhodococcus sp., 9%.

Consider `COc1ccc(-c2cc(-c3ccc(OC)c(OC)c3)on2)cc1OC` [Compound 43, 3,5-Bis(3,4-dimethoxyphenyl)isoxazole], for which the inhibition at 100 µM in the assay with Albugo candida [1] was greater than 70%. Further, the activity at 100 µM in assay [2] was 114%; in the assay on Rhodococcus sp., 75%.

On to `CCc1ccc(-c2cc(-c3cccc(NC(=O)[C@@H](N)CO)c3)[nH]n2)cc1` [Compound 129, (2S)-2-Amino-N-{3-[3-(4-ethylphenyl)-1H-pyrazol-5-yl]phenyl}-3-hydroxypropanamide hydrochloride], for which the inhibition at 100 µM in the assay on P. infestans was 97%; in the assay with Phakopsora pachyrhizi, greater than 70%.

As for `O=C(c1ccc(-c2cc(-c3ccc(F)cc3)[nH]n2)cc1)N1CCOCC1` [Compound 143, {4-[5-(4-Fluorophenyl)-1H-pyrazol-3-yl]phenyl}(morpholin-4-yl)methanone], the results for the inhibition at 100 µM in the assay on P. infestans and in the assay on Phakopsora pachyrhizi were 94% and 5 to 30%, respectively.
